Laboratory results taken from ChEMBL document CHEMBL1157238, “An unusual oxalylated tetramic acid from the New Zealand basidiomycete Chamonixia pachydermis” (2006).

Tested on: Bacillus subtilis
Test: Antibacterial activity against Bacillus subtilis at 40 ug by agar diffusion assay
Assay type: functional
Conditions: read-out: IZ

O=C(O)C(=O)C1=C(O)/C(=C/c2ccc(O)c(Cl)c2)NC1=O [PACHYDERMIN]
zone of inhibition at 40 µg/disc: 1 mm
